Data: patent US5081116A, “Cephalosporin derivatives” (Yamanouchi Pharmaceutical Co., Ltd., priority 1989, dated 1992)
≈ marks a conversion by molar mass, not a printed value. Where two headings read alike, the source gives them in different places.

Columns and labels:
CAY 1104 = assay: Minimum growth inhibition concentration (antimicrobial activity); type: cell-based; settings: Enterobacter Faecalis CAY 1104
Excerpt: (§1) The antimicrobial activity of the 7-[2-(2-amino-4-thiazolyl)-2-(hydroxyimino)acetamido]-3-(1,3-dithiolan-2-yl)-3-cephem-4-carboxylic acid which is such that A of the compounds of the general formula is the hydrogen atom (Compound of Example 1) is shown in Table 1.
(§2) (Minimum Growth Inhibition Concentration, γ/ml)

Escherichia coli 0-1 = assay: as above; type: cell-based; settings: 01
Excerpt: as §1, §2

[1] = test system: Klebsiella pneumoniae ATCC 10031; assay: as above; type: cell-based; settings: ATCC10031
Excerpt: as §1, §2

[2] = test system: Staphylococcus aureus FDA 209P JC-1; assay: as above; type: cell-based; settings: FDA209P
Excerpt: as §1, §2

[3] = test system: Staphylococcus epidermidis IID 866; assay: as above; type: cell-based; settings: IID866
Excerpt: as §1, §2

[4] = Absorption rate from the digestive tract (urinary and biliary recovery after oral administration); type: in vivo; settings: rat, 50 mg/kg, bioassay
Protocol: Further, the absorption rate of the compound of the general formula (I) wherein A is the 1-acetoxyethyl group (Compound of Example 2) from the digestive tract is shown as follows together with the testing method therefor.
An ether-anesthetized rat was fixed with the belly upside and a polyethylene tube was inserted into the bile-duct. The urine was collected from the same rat. After the test compound was orally administered at 50 mg/kg, urine and bile samples were collected within 0-6 hours and also within 6-24 hours. The amounts recovered in the urine and the bile within 24 hours were determined by measuring the test compound concentrations in the urine and the bile by a bioassay method using the standard solution of the test compound prepared with M/15 phosphate buffer.

Row | MIC (CAY 1104) [mg/L] | MIC (Escherichia coli 0-1) [mg/L] | MIC [1] [mg/L] | MIC [2] [mg/L] | MIC [3] [mg/L] | SMILES | dose excreted at 24 h ([4]; bile, read-out: Recovery Rate (%) within 24 hours In the Bile) [%] | dose excreted at 24 h ([4]; urine, read-out: Recovery Rate (%) within 24 hours In the Urine) [%] | dose excreted at 24 h ([4]; urine and bile, urine + bile, read-out: Recovery Rate (%) within 24 hours Total) [%]
1 | 3.13 (≈ 6.61 µM) | 0.39 (≈ 0.824 µM) | 0.78 (≈ 1.65 µM) | 0.39 (≈ 0.824 µM) | 0.39 (≈ 0.824 µM) | Nc1nc(/C(=N/O)C(=O)NC2C(=O)N3C(C(=O)O)=C(C4SCCS4)CS[C@H]23)cs1 (some centres unmarked) [Example 1, (Z)-7-[2-(2-amino-4-thiazolyl)-2-(hydroxyimino)acetamido]-3-(1,3-dithiolan-2-yl)3-cephem-4-carboxylic acid] |  |  | 
2 |  |  |  |  |  | CC(=O)OC(C)OC(=O)C1=C(C2SCCS2)CS[C@@H]2C(NC(=O)/C(=N\O)c3csc(N)n3)C(=O)N12 (some centres unmarked) [Example 2, 1-acetoxyethyl (Z)-7-[2-(2-amino-4-thiazolyl)-2-(hydroxyimino)acetamido]-3-(1,3-dithiolan-2-yl)-3-cephem-4-carboxylate] | 8.5 | 14.1 | 22.6
